Data reported in patent US20240216344A1, “THIAZOLIDINEDIONE ANALOGS FOR THE TREATMENT OF NAFLD AND METABOLIC DISEASES” (Cirius Therapeutics, Inc., priority 2019, published 2024).

Columns and labels:
[1] = system: subjects with biopsy proven NASH with fibrosis and no cirrhosis; assay: EMMINENCE Phase 2b trial, interim analysis at six months; assay type: in vivo, human; details: for Peripheral edema present: 6 months
Excerpt: Detailed Description: This is a randomized, double-blinded study of three doses of MSDC-0602K or placebo given orally once daily to subjects with biopsy proven NASH with fibrosis and no cirrhosis. Visits to the clinic will be at baseline, 1, 2, 3, 6, 9, and 12 months, with one 2-week follow-up visit. Safety will be assessed by monitoring of vital signs, 12 lead electrocardiogram (ECG), physical examinations, safety labs, and adverse events (AEs).
An interim analysis of the EMMINENCE Phase 2b trial was conducted in the first 328 subjects who reached their six-month follow-up visit. […] In the two highest dose groups, at least 50% of patients with elevated baseline Alanine transaminase (ALT) or Aspartate Aminotransferase (AST) improved into the normal range at six months, as shown in Table 3.
The subjects included in this interim analysis had significant liver disease, as established by liver biopsy, with an average NAS at baseline of 5.3. […] Overall, baseline characteristics were well-balanced across treatment groups.

[2] = system: patients with biopsy-proven NASH with fibrosis and no cirrhosis; assay: EMMINENCE Phase 2b trial, safety and weight; assay type: in vivo
Procedure: The primary efficacy endpoint was assessed at 12 months. Clinic visits were conducted at baseline, 1, 2, 3, 6, 9, and 12 months, followed 2 weeks later by a safety visit.
Safety: Safety was evaluated by adverse event incidence, and changes in clinical laboratory values, vital signs, and ECG parameters. Major adverse cardiovascular events (MACE) including death, non-fatal myocardial infarction (MI), unstable angina (USA) hospitalization, hospital admission for heart failure (HF), or non-fatal ischemic stroke; liver events including ascites, hepatic encephalopathy, variceal hemorrhage, hepatocellular carcinoma (HCC), or liver transplant; severe hypoglycemia; and bone fracture requiring surgery or hospitalization were adjudicated by an independent physician.
Using a modified intent-to-treat approach, treated patients were included for analysis in their randomly-assigned treatment groups. Participation of sites with serious GCP or quality concerns were terminated and their data excluded from the analyses. Post-baseline measures through 14 days after the last study drug dose were included. […] The central histopathologist's re-read of baseline biopsies was used as baseline. Patients who no longer qualified on re-read were included in the analyses. […] Stratification-adjusted risk differences adjusted similarly are provided. The primary analyses included only observed data; sensitivity analyses included multiply-imputing missing follow-up and considering missing follow-up as a non-responder. Each active dose was compared to placebo regarding changes in NASH CRN scores using analysis of covariance with adjustment for age, sex, diabetes mellitus, Vitamin E≥400 IU, baseline fibrosis F1 versus F2/F3, and the baseline value. Changes in laboratory markers from baseline to 6 months and to 12 months were analyzed similarly.

With COc1cccc(C(=O)COc2ccc(CC3SC(=O)NC3=O)cc2)c1 (stereo not drawn) [MSDC-0602K] the Peripheral edema present ([1]; 62.5 mg) was 7.80%, the “Percentage of patients with high baseline ALT who returned to normal range” value ([1]; 62.5 mg, six months) was 29% and the “Percentage of patients with high baseline AST who returned to normal range” value ([1]; 62.5 mg, six months) was 36%. For the same compound, the “Placebo-corrected reduction in ALT” value ([1]; 125 mg cohort, six months) was 14.3 U/L, the “Placebo-corrected reduction in AST” value ([1]; 125 mg cohort, six months) was 7.9 U/L and the Peripheral edema present ([1]; 125 mg) was 13.50%. The “Percentage of patients with high baseline ALT who returned to normal range” value ([1]; 125 mg, six months) was 60%, the “Percentage of patients with high baseline AST who returned to normal range” value ([1]; 125 mg, six months) was 50% and the “Placebo-corrected reduction in ALT” value ([1]; 250 mg cohort, six months) was 10.6 U/L. For the same compound, the Placebo-corrected reduction in AST ([1]; 250 mg cohort, six months, not significant) was 4 U/L, the Peripheral edema present ([1]; 250 mg) was 11.10% and the “Percentage of patients with high baseline ALT who returned to normal range” value ([1]; 250 mg, six months) was 56%. The “Percentage of patients with high baseline AST who returned to normal range” value ([1]; 250 mg, six months) was 52%, the “fasting glucose, HbA1c, insulin levels, and HOMA-IR” value ([1]; all subjects, 125 mg and 250 mg doses, six months) was “statistically significant improvements” and the Adiponectin ([1]; all treatment cohorts, dose dependent, six months) was “increased significantly”. For the same compound, the “overall adverse event rates” value ([1]; placebo and all doses) was “similar”, the effect on lipids ([1]; six months) was “neutral effect” and the “patients with elevated baseline ALT or AST improved into the normal range” value ([1]; two highest dose groups, six months) was “at least 50%”. The “C-Reactive Protein levels” value ([1]; two lowest doses, six months) was “decrease”, the “Non-cardiac chest pain (SAE)” value ([2]; 62.5 mg) was 1 patients and the “Subjects with TEAEs Leading to Study Drug Discontinuation” value (from here on “Subjects with TEAEs Leading”) ([2]; 62.5 mg) was 2 (2.0) n (%). The “Subjects with TEAEs Related to Study Drug” value ([2]; 62.5 mg) was 22 (22.2) n (%), the “Subjects with TEAEs Related to Study Drug and Leading to Study Drug Discontinuation” value ([2]; 62.5 mg) was 0 (0.0) n (%) and the “Subjects with any Treatment-Emergent Adverse Event (TEAE)” value (“Subjects … (TEAE)” below) ([2]; 62.5 mg) was 78 (78.8) n (%). For the same compound, the “TESAE: General disorders and administration site conditions” value ([2]; 62.5 mg) was 1 ( 1.0) n (%), the “TESAE: Non-cardiac chest pain” value ([2]; 62.5 mg) was 1 ( 1.0) n (%) and the “adverse events of edema” value ([2]; 62.5 mg) was 6 patients. The “fractures requiring hospitalization or surgery” value ([2]; 62.5 mg) was 1 patients, the treatment discontinuation rate ([2]; 62.5 mg) was 9.1% and the “unadjusted median weight change” value ([2]; 62.5 mg) was 0.82 kg. For the same compound, the “Non-cardiac chest pain (SAE)” value ([2]; 125 mg) was 1 patients, the “Subjects with TEAEs Leading” value ([2]; 125 mg) was 3 (3.1) n (%) and the “Subjects with TEAEs Related to Study Drug” value ([2]; 125 mg) was 26 (26.5) n (%). For the same compound, the “Subjects with TEAEs Related to Study Drug and Leading to Study Drug Discontinuation” value ([2]; 125 mg) was 1 (1.0) n (%), the “Subjects … (TEAE)” value ([2]; 125 mg) was 76 (77.6) n (%) and the “TESAE: General disorders and administration site conditions” value ([2]; 125 mg) was 2 (2.0) n (%). The “TESAE: Non-cardiac chest pain” value ([2]; 125 mg) was 1 (1.0) n (%), the “adjudicated HF hospitalization” value ([2]; 125 mg) was “One” and the “adjudicated MACE” value ([2]; 125 mg) was “two”. The “adverse events of edema” value ([2]; 125 mg) was 11 patients, the “fractures requiring hospitalization or surgery” value ([2]; 125 mg) was 1 patients and the treatment discontinuation rate ([2]; 125 mg) was 12.2%. The “unadjusted median weight change” value ([2]; 125 mg) was 1.10 kg, the unrelated deaths ([2]; 125 mg) was “one” and the “Subjects with TEAEs Leading” value ([2]; 250 mg) was 1 (1.0) n (%). For the same compound, the “Subjects with TEAEs Related to Study Drug” value ([2]; 250 mg) was 25 (24.8) n (%), the “Subjects with TEAEs Related to Study Drug and Leading to Study Drug Discontinuation” value ([2]; 250 mg) was 0 (0.0) n (%) and the “Subjects … (TEAE)” value ([2]; 250 mg) was 77 (76.2) n (%). For the same compound, the “TESAE: General disorders and administration site conditions” value ([2]; 250 mg) was 1 (1.0) n (%), the “TESAE: Non-cardiac chest pain” value ([2]; 250 mg) was 0 (0.0) n (%) and the “adjudicated severe hypoglycemia event” value ([2]; 250 mg) was “One”. For the same compound, the “adverse events of edema” value ([2]; 250 mg) was 7 patients, the “fractures requiring hospitalization or surgery” value ([2]; 250 mg) was 2 patients and the treatment discontinuation rate ([2]; 250 mg) was 12.9%. For the same compound, the “unadjusted median weight change” value ([2]; 250 mg) was 2.28 kg, the tolerability ([2]; 12 months daily oral) was “well tolerated” and the adjudicated liver events ([2]; all groups) was “no adjudicated liver events occurred”.
